From US9879028B2, “Compounds that modulate EGFR activity and methods for treating or preventing conditions therewith” (Gatekeeper Pharmaceuticals, Inc., priority 2009, dated 2018)

Key:
[1] = system: EGFR Del 19/T790M Ba/F3 cells; assay: MTS cell proliferation and growth assay in EGFR mutant Ba/F3 cells (Del 19/T790M); format: cell-based; conditions: Mus musculus, BaF3, 72 hours
Text: (§1) The EGFR and iERBB2 mutant Ba/F3 cells and the NIH-3T3 cells have been previously characterized (Engelman, J. A. et al. Cancer Res 67, 11924-32 (2007); Yuza, Y. et al. Cancer Biol Ther 6 (2007)). The EGFR C797S and the ERBB2 T798I mutations are introduced using site directed mutagenesis using the Quick Change Site-Directed Mutagenesis kit (Stratagene; La Jolla, Calif.) according to the manufacturer's instructions (Mukohara, T. et al. J Natl Cancer Inst 97, 1185-94 (2005)). The oligonucleotide sequences are available upon request. All constructs are confirmed by DNA sequencing. The constructs are shuttled into the retroviral vector JP1540 using the BD Creator™ System (BD Biosciences). Ba/F3 of NIH-3T3 cells are infected with retrovirus according to standard protocols, as described previously (Engelman, J. A. et al. Proc Natl Acad Sci USA 102, 3788-93 (2005); Zhao, J. J. et al. Cancer Cell 3, 483-95 (2003)). Stable populations are obtained by selection in puromycin (2 μg/ml).
(§2) Growth and inhibition of growth is assessed by MTS assay. […]
(§3) Activity of various compounds of the invention was determined in vitro in EGFR mutant Ba/F3 cells according to the procedures set forth in Example 1.

[2] = system: EGFR L858R/T790M Ba/F3 cells; assay: MTS cell proliferation and growth assay in EGFR mutant Ba/F3 cells (L858R/T790M); format: cell-based; conditions: Mus musculus, BaF3, 72 hours
Text: as §1, §2, §3

[3] = system: lung cancer; conditions: lung cancer patients; cited from earlier work

| SMILES | IC50 [1] | IC50 [2] | median time to tumor progression [3] |
| --- | --- | --- | --- |
| C=CC(=O)Nc1cccc(Oc2nc(Nc3ccc(N4CCN(C)CC4)cc3OC)nc3ccccc23)c1 [IV-1, N-(3-((2-((2-methoxy-4-(4-methylpiperazin-1-yl)phenyl)amino)quinazolin-4-yl)oxy)phenyl)acrylamide] | 435 nM | 688 nM |  |
| C=CC(=O)Nc1cccc(-c2csc3cnc(Nc4ccc(N5CCN(C)CC5)cc4OC)nc23)c1 [VIII-1, N-(3-(2-((2-methoxy-4-(4-methylpiperazin-1-yl)phenyl)amino)thieno[3,2-d]pyrimidin-7-yl)phenyl)acrylamide] | 864 nM | 2160 nM |  |
| C#Cc1cccc(Nc2ncnc3cc(OCCOC)c(OCCOC)cc23)c1 [erlotinib] |  |  | approximately 2 months |
| COc1cc2ncnc(Nc3ccc(F)c(Cl)c3)c2cc1OCCCN1CCOCC1 [gefitinib] |  |  | approximately 2 months |
